Measurements reported in PMC7251123, “CX-5461 activates the DNA damage response and demonstrates therapeutic efficacy in high-grade serous ovarian cancer” (Nature Communications, 2020).
Several values for one entry are separate records, joined by “and”; a condition that tells them apart may be missing. Equal values may be shown once. Read-outs that look alike come from different tables or passages of the source.

Test system: Pol I transcription
Experiment: Inhibition of Pol I transcription: 47S precursor rRNA levels by quantitative RT-PCR after 1 h treatment
Assay type: cell-based, human
Details: for 47S precursor rRNA level, fold change relative to vehicle-treated controls: individual replicates; for IC50: Homo sapiens
Method: Fig. 1 Sensitivity of ovarian cancer (OVCA) cell lines to CX-5461. a CX-5461 doses that induce 50% growth inhibition (GI50) at 48 hours. Error bars represent mean ± standard deviation (SD). Asterisks denote mutated TP53 status. […] Information regarding each cell lines source, mean G1_50 values, SD and N values are outlined in Supplementary Table 1. […] Statistical analysis was performed using a two-sided Mann–Whitney test. Error bars represent mean ± SD. c Baseline rDNA transcription rates of OVCA cell lines (listed in (d)), as determined by quantitative real-time PCR (qRT-PCR) analysis using primers specific to the external transcribed spacer 5’ETS (+413–521 bp) relative to the transcription start site (TSS). Expression levels in each cell line were normalised to Vimentin mRNA and expressed as fold change relative to TOV112D cells. Each dot represents the mean value of n = 3 biologically independent experiments per cell line (Individual data points are provided in Supplementary Data 4). Error bars represent mean ± SD. Statistical analysis was performed using a two-tailed unpaired t test. d Dose-response curves of 47S precursor rRNA levels measured by quantitative RT-PCR. OVCA cell lines were treated with vehicle or increasing drug concentrations of CX-5461 (0.001, 0.01, 0.03, 0.1, 0.3, 1 and 3 μM) for 1 h before RNA was harvested. Expression levels were normalised to Vimentin mRNA and expressed as fold change relative to vehicle-treated controls. Shown are the mean of n = 3 independent biological experiments for each cell line. (Individual data points are provided in Supplementary Data 4). e The mean inhibitory concentration values that led to 50% transcription inhibition (IC50) (of n = 3 biologically independent experiments for each cell line) from D are presented (Individual data points are provided in Supplementary Data 4). Error bars represent mean ± SD. Statistical analysis was performed using a two-sided Mann–Whitney test.
For Reverse-transcription qPCR analysis, cells were lysed, RNA extracted, and first-strand cDNA synthesized using random hexamer primers (Promega, C1181) and Superscript III (Invitrogen,18080044). Quantitative PCR (qPCR) was performed in duplicate using the FAST SYBR Green dye (Applied Biosystems, 4385610) on the StepOnePlus real-time PCR system (Applied Biosystems). Primer sequences are listed in (Supplementary Table 3).
Dose-response curves of 4 7S precursor rRNA levels (Figure 1D) measured by quantitative RT-PCR after 1h treatment. Expression levels
were normalised to Vimentin mRNA and expressed as fold change relative to vehicle-treated controls.
IC50 doses (Figure 1E) were determined from dose response curves in Figure 1D
using GraphPad Prism version 8.

Cc1cnc(CNC(=O)c2c(=O)c3ccc(N4CCCN(C)CC4)nc3n3c2sc2ccccc23)cn1 [CX-5461]
47S precursor rRNA level, fold change relative to vehicle-treated controls (A2780, CX-5461 0.00000001 M, 1 h): 1.227 and 1.156 and 0.5552 | 47S precursor rRNA level, fold change relative to vehicle-treated controls (A2780, CX-5461 0.00000003 M, 1 h): 1.079 and 0.6056 and 0.5354 | 47S precursor rRNA level, fold change relative to vehicle-treated controls (A2780, CX-5461 0.0000001 M, 1 h): 0.7784 and 0.3051 and 0.7248 | 47S precursor rRNA level, fold change relative to vehicle-treated controls (A2780, CX-5461 0.0000003 M, 1 h): 0.4946 and 0.2868 and 0.2848 | 47S precursor rRNA level, fold change relative to vehicle-treated controls (A2780, CX-5461 0.000001 M, 1 h): 0.1884 and 0.1928 and 0.2616 | 47S precursor rRNA level, fold change relative to vehicle-treated controls (A2780, CX-5461 0.000003 M, 1 h): 0.1746 and 0.05092 and 0.1316 | 47S precursor rRNA level, fold change relative to vehicle-treated controls (A2780, CX-5461 1E-09 M, 1 h): 1.211 and 0.7921 and 0.6449 | 47S precursor rRNA level, fold change relative to vehicle-treated controls (EFO21, CX-5461 0.00000001 M, 1 h): 1.115 and 1.095 and 1.792 | 47S precursor rRNA level, fold change relative to vehicle-treated controls (EFO21, CX-5461 0.00000003 M, 1 h): 1.11 and 1.692 and 0.987 | 47S precursor rRNA level, fold change relative to vehicle-treated controls (EFO21, CX-5461 0.0000001 M, 1 h): 0.7444 and 0.9773 and 0.668 | 47S precursor rRNA level, fold change relative to vehicle-treated controls (EFO21, CX-5461 0.0000003 M, 1 h): 0.2419 and 0.3103 and 0.414 | 47S precursor rRNA level, fold change relative to vehicle-treated controls (EFO21, CX-5461 0.000001 M, 1 h): 0.2002 and 0.2399 and 0.3839 | 47S precursor rRNA level, fold change relative to vehicle-treated controls (EFO21, CX-5461 0.000003 M, 1 h): 0.1871 and 0.2673 and 0.0006867 | 47S precursor rRNA level, fold change relative to vehicle-treated controls (EFO21, CX-5461 1E-09 M, 1 h): 1.492 and 1.313 and 0.8129 | IC50 (1 h, 2008, 1 h, mean n=3, read-out: IC50 Pol I transcription): 0.0488 µM | IC50 (1 h, ES2, 1 h, mean n=3, read-out: IC50 Pol I transcription): 0.0551 µM | IC50 (1 h, JHOC9, 1 h, mean n=3, read-out: IC50 Pol I transcription): 0.268 µM | IC50 (1 h, JHOM1, 1 h, mean n=3, read-out: IC50 Pol I transcription): 0.202 µM | IC50 (1 h, KURAMOCHI, 1 h, mean n=3, read-out: IC50 Pol I transcription): 0.0478 µM | IC50 (1 h, RMG2, 1 h, mean n=3, read-out: IC50 Pol I transcription): 0.114 µM | IC50 (1 h, sensitive and resistant OVCA cell lines, 1 h treatment, read-out: IC50 (concentration inhibiting Pol I transcription by 50%), range over cell lines): 0.038 to 0.285 µM | IC50 (A2780, 1 h, mean n=3, read-out: IC50 Pol I transcription): 0.0633 µM | IC50 (COLO 704, 1 h, COLO704, 1 h, mean n=3, read-out: IC50 Pol I transcription): 0.0968 µM | IC50 (EFO-21, 1 h, EFO21, 1 h, mean n=3, read-out: IC50 Pol I transcription): 0.0654 µM | IC50 (IGROV-1, 1 h, IGROV1, 1 h, mean n=3, read-out: IC50 Pol I transcription): 0.0384 µM | IC50 (OV-90, 1 h, OV90, 1 h, mean n=3, read-out: IC50 Pol I transcription): 0.117 µM | IC50 (OVCAR-3, 1 h, OVCAR3, 1 h, mean n=3, read-out: IC50 Pol I transcription): 0.0674 µM | IC50 (OVCAR-4, 1 h, OVCAR4, 1 h, mean n=3, read-out: IC50 Pol I transcription): 0.0885 µM | IC50 (OVCAR-8, 1 h, OVCAR8, 1 h, mean n=3, read-out: IC50 Pol I transcription): 0.0976 µM | IC50 (TOV112D, 1 h, TOV112D, 1 h, mean n=3, read-out: IC50 Pol I transcription): 0.134 µM | 47S precursor rRNA level, fold change relative to vehicle-treated controls (JHOC9, CX-5461 0.00000001 M, 1 h): 0.9254 and 0.9049 and 1.002 | 47S precursor rRNA level, fold change relative to vehicle-treated controls (JHOC9, CX-5461 0.00000003 M, 1 h): 1.057 and 1.034 and 0.8359 | 47S precursor rRNA level, fold change relative to vehicle-treated controls (JHOC9, CX-5461 0.0000001 M, 1 h): 0.8119 and 0.7939 and 0.6945 | 47S precursor rRNA level, fold change relative to vehicle-treated controls (JHOC9, CX-5461 0.0000003 M, 1 h): 0.5763 and 0.5636 and 0.384 | 47S precursor rRNA level, fold change relative to vehicle-treated controls (JHOC9, CX-5461 0.000001 M, 1 h): 0.3587 and 0.3508 and 0.2158 | 47S precursor rRNA level, fold change relative to vehicle-treated controls (JHOC9, CX-5461 0.000003 M, 1 h): 0.08402 and 0.08216 and 0.06114 | 47S precursor rRNA level, fold change relative to vehicle-treated controls (JHOC9, CX-5461 1E-09 M, 1 h): 1.047 and 1.024 and 0.8051 | 47S precursor rRNA level, fold change relative to vehicle-treated controls (OV90, CX-5461 1E-09 M, 1 h): 1.356 | 47S precursor rRNA level, fold change relative to vehicle-treated controls (RMG2, CX-5461 0.00000001 M, 1 h): 1.019 and 0.9292 and 0.7914 | 47S precursor rRNA level, fold change relative to vehicle-treated controls (RMG2, CX-5461 0.00000003 M, 1 h): 0.8882 and 0.4552 and 0.4564 | 47S precursor rRNA level, fold change relative to vehicle-treated controls (RMG2, CX-5461 0.0000001 M, 1 h): 0.8694 and 0.414 and 0.3672 | 47S precursor rRNA level, fold change relative to vehicle-treated controls (RMG2, CX-5461 0.0000003 M, 1 h): 0.5159 and 0.1241 and 0.09886 | 47S precursor rRNA level, fold change relative to vehicle-treated controls (RMG2, CX-5461 0.000001 M, 1 h): 0.2164 and 0.1124 and 0.1026 | 47S precursor rRNA level, fold change relative to vehicle-treated controls (RMG2, CX-5461 0.000003 M, 1 h): 0.06697 and 0.02897 and 0.03341 | 47S precursor rRNA level, fold change relative to vehicle-treated controls (RMG2, CX-5461 1E-09 M, 1 h): 0.7818 and 0.717 and 0.6208 | 47S precursor rRNA level, fold change relative to vehicle-treated controls (TOV112D, CX-5461 0.00000001 M, 1 h): 1.178 and 0.9492 | 47S precursor rRNA level, fold change relative to vehicle-treated controls (TOV112D, CX-5461 0.00000003 M, 1 h): 0.9271 | 47S precursor rRNA level, fold change relative to vehicle-treated controls (TOV112D, CX-5461 0.0000001 M, 1 h): 1.01 | 47S precursor rRNA level, fold change relative to vehicle-treated controls (TOV112D, CX-5461 0.0000003 M, 1 h): 0.388 and 0.509 | 47S precursor rRNA level, fold change relative to vehicle-treated controls (TOV112D, CX-5461 0.000001 M, 1 h): 0.1661 and 0.2245 and 0.333 | 47S precursor rRNA level, fold change relative to vehicle-treated controls (TOV112D, CX-5461 0.000003 M, 1 h): 0.1644 and 0.0787 and 0.1952 | 47S precursor rRNA level, fold change relative to vehicle-treated controls (TOV112D, CX-5461 1E-09 M, 1 h): 1.079 and 1.012 and 1.217
